Measured values from US20240108674A1, “BERBERIS EXTRACT NANO-FORMULATION AND PROCESS OF PREPARATION THEREOF” (priority 2021, published 2024).

System: RBC membrane
Assay: In-vitro anti-inflammatory activity, RBC membrane protection
Format: cell-based
Conditions: concentration of 5 mg/mL

`O=C(O)Cc1ccccc1Nc1c(Cl)cccc1Cl` [diclofenac sodium] was tested, and the RBC membrane protection was 76%.

Molecule `C[C@]12C=CC(=O)C=C1CC[C@@H]1[C@@H]2[C@@H](O)C[C@@]2(C)[C@H]1CC[C@]2(O)C(=O)CO` [prednisolone] has an RBC membrane protection of 73%.
